In brackets after ≈: the same amount, converted by molar mass.
How the values were obtained:
[1] = target: T1, HIV reverse transcriptase (RT) (Human immunodeficiency virus type 1 group M subtype B, UniProt P03366); test: Assay for HIV reverse transcriptase inhibition (scintillation proximity assay); format: biochemical; details: for Reverse Transcriptase Assay IC50: RT from HIV cloned in E. coli, SPA, 60 minutes (37° C.)
T1 construct: The enzyme RT (from HIV cloned in E. coli); purchased HT-Biotechnology Ltd, Cambridge, UK; host or cells: E. coli
Experimental: Assay of the Substances for HIV Reverse Transcriptase Inhibition
The activity of reverse transcriptase (RT) was determined with the aid of a scintillation proximity assay (SPA).
The reagent kit for the RT-SPA was obtained from Amersham/Buchler (Braunschweig).
The enzyme RT (from HIV cloned in E. coli) originated from HT-Biotechnology Ltd, Cambridge, UK.
The assay was carried out using the manufacturer's (Amersham) protocol manual, with the following modifications: bovine serum albumin was added to the assay buffer to give an end concentration of 0.5 mg/ml the assay was carried out in Eppendorf reaction vessels, using 100 μl volume per batch the manufacturer's RT concentrate (5000 U/ml) was diluted in Tris-HCl buffer 20 mM; pH 7.2; 30% of glycerol, to an activity of 15 U per ml the incubation time for the mixtures was 60 minutes (37° C.) after stopping the reaction and “developing” with the bead suspension, 130 μl of mixture were transferred to 4.5 ml of Tris-HCl buffer, 10 mM; pH 7.4; 0.15 M NaCl, and the tritium activity was measured by means of a [formula]-counter.
For a pre-assay for inhibitory activity, the substances were dissolved in DMSO (stock solution c=1 mg/ml), and tested as a 10^−1, 10^−2, 10^−3, etc., dilution in DMSO.
To determine IC50 values, the inhibitor stock solutions were diluted further in Tris-HCl buffer, 50 mM, pH 8, and tested in suitable concentrations.
The concentration corresponding to a 50% enzyme inhibition was determined from a plot of RT activity versus log Clnh.

HIV = test: Test of preparations against HIV in cell culture (T-cell culture assay); format: cell-based; details: lowest concentration where no giant cells were observed, HIV-infected lymphocytes from donor blood, 3 days at 37° C.; for MIC: Human immunodeficiency virus 1, 72 h
Experimental: Test of Preparations Against HIV in Cell Culture
Complete medium additionally contains 20% fetal calf serum and 40 IU/ml recombinant interleukin 2.
Lymphocytes which have been isolated from fresh donor blood by means of Ficoll gradient centrifugation are cultured for 36 hours in complete medium with an addition of 2 μg/ml phytohemagglutinin (Wellcome) at 37° C. under 5% of CO2. After 10% of DMSO has been added, the cells are frozen at a density of 5 [formula]10^6 and stored in liquid nitrogen. For the test, the cells are defrosted, washed in RPMI medium and cultured for 3-4 days in the complete medium.
The test preparations were dissolved in DMSO at a concentration of 16.7 mg/ml and diluted in complete medium to 1 mg/ml.
0.4 ml of medium was introduced into 24-multiwell dishes. 0.1 ml of the dissolved preparation was added to the upper row of the dish, and, by transferring 0.1 ml portions, a geometric dilution series was established. Controls without preparation always contained 0.4 ml of complete medium containing 0.5% of DMSO. Lymphocyte cultures with a cell density of 5 [formula]10^5 cells/ml were infected by adding 1/50 volume supernatant from HIV-infected lymphocyte cultures. The titer of these culture supernatants was determined by end-point titration as 1-5 [formula]10^6 infectious units/ml. After 30 minutes' incubation at 37° C., the infected lymphocytes were removed by centrifugation and taken up in an equal volume of medium. From this cell suspension, 0.6 ml aliquots were transferred into all wells of the test plate. The mixtures were incubated for 3 days at 37° C.
The infected cell cultures were examined under the microscope for the presence of giant cells, which indicate active virus multiplication in the culture. The lowest concentration of preparation where no giant cells were observed was determined as inhibitory concentration against HIV. As a control, the supernatants from the culture plates were tested for the presence of HIV antigen with the aid of an HIV antigen test following the manufacturer's instructions (Organon).

Compound	T-cell culture assay MIC (HIV) [µg/mL]	Reverse Transcriptase Assay IC50 [1]	other results
CC(C)=CCN1c2ccccc2NC(=S)C1C (racemic) [Example 7-1, (3RS)-3-Methyl-4-N-(3-methyl-2-buten-1-yl)-3,4-dihydroquinoxaline-2(1H)-thione]	–	–	IC50 [1]: 325 nM; MIC (HIV): < 0.16 µg/mL
CC(C)=CCN1c2cc(Cl)ccc2NC(=O)C1C (racemic) [VI-C, (3RS)-6-Chloro-3-methyl-4-N-(3-methyl-2-buten-1-yI)-3,4-dihydroquinoxalin-2(1H)-one]	<0.8	0.8 µg/mL	–
C=CCOC(=O)N1c2cc(Cl)ccc2NC(=O)C1C (stereo not shown) [Example 3-7]	0.08	0.08 µg/mL	–
CC1C(=O)Nc2ccc(Cl)cc2N1Cc1ccccc1 (stereo not shown) [Example 3-21]	0.16	–	–
CC(C)COC(=O)N1c2cc(Cl)ccc2NC(=O)C1C (stereo not shown) [Example 3-26]	0.4	–	–
C=C(C)OC(=O)N1c2cc(OCCOC)ccc2NC(=O)C1CC (stereo not shown) [Example 3-33]	0.4	–	–
C=C(C)OC(=O)N1c2cc(Cl)ccc2NC(=O)C1CCC (stereo not shown) [Example 3-34]	–	0.1 to 1 µg/mL	–
C=CCOC(=O)N1c2cc(Cl)ccc2NC(=O)C1CCC (stereo not shown) [Example 3-35]	–	0.1 to 1 µg/mL	–
C=C(C)OC(=O)N1c2cc(Cl)ccc2NC(=O)C1C(C)C (stereo not shown) [Example 3-37]	–	0.1 to 1 µg/mL	–
C=C(C)OC(=O)N1c2cc(Cl)ccc2NC(=O)C1CCSC (stereo not shown) [Example 3-44]	<0.8	–	–
C=CCOC(=O)N1c2cc(Cl)ccc2NC(=O)C1CC(C)C (stereo not shown) [Example 3-48]	<0.8	–	–
CC(C)=CCN1c2c(Cl)cccc2NC(=O)C1C (stereo not shown) [Example 3-52]	>0.8	–	–
CC(C)=CCN1c2ccc(Cl)cc2NC(=O)C1C (stereo not shown) [Example 3-53]	>0.8	–	–
C=C(C)OC(=O)N1c2ccc(Cl)cc2NC(=O)C1CCSC (stereo not shown) [Example 3-62]	<4.0	–	–
CC(C)=CCN1c2ccc(F)cc2NC(=O)C1C (stereo not shown) [Example 3-64]	>0.8	–	–
C=C(C)OC(=O)N1c2ccc(F)cc2NC(=O)C1C (stereo not shown) [Example 3-66]	>0.08	–	–
CC(C)=CCN1c2cc(F)ccc2NC(=O)C1C (stereo not shown) [Example 3-67]	<0.8	–	–
C=C(C)OC(=O)N1c2ccc(Oc3ccccc3)cc2NC(=O)C1C (stereo not shown) [Example 3-73]	>0.4	–	–
C=CCOC(=O)N1c2cc(Cl)ccc2NC(=O)C1C(C)CC (stereo not shown) [Example 3-80]	0.4	–	–
CCCCC(=O)N1c2cc(Cl)ccc2NC(=O)C1C (stereo not shown) [Example 3-87]	>0.8	–	–
CCCC(=O)N1c2cc(Cl)ccc2NC(=O)C1C (stereo not shown) [Example 3-88]	0.8	–	–
CSCC1C(=O)Nc2ccc(Cl)cc2N1C(=O)OC(C)C (stereo not shown) [Example 3-127]	–	0.01 to 0.1 µg/mL	–
C=C(C)OC(=O)N1c2cc(OC)ccc2NC(=O)C1CSC (stereo not shown) [Example 3-128]	–	0.01 to 0.1 µg/mL	–

Compound	T-cell culture assay MIC (HIV) [µg/mL]	Reverse Transcriptase Assay IC50 [1]	other results
COc1ccc2c(c1)N(C(=O)OC(C)C)C(CSC)C(=O)N2 (stereo not shown) [Example 3-129]	–	0.01 to 0.1 µg/mL	–
C=C(C)OC(=O)N1c2cc(Cl)ccc2NC(=O)C1(C)C [Example 6-8]	–	0.1 to 1 µg/mL	–
C=C(C)OC(=O)N1c2ccc(Cl)cc2NC(=O)C1(C)C [Example 6-9]	–	approx. 1 μg/ml	–
C=CCOC(=O)N1c2cc(Cl)ccc2NC(=S)C1CC (stereo not shown) [Example 7-15]	–	0.01 to 0.1 µg/mL	–
C=C(C)OC(=O)N1c2cc(Cl)ccc2NC(=S)C1CCC (stereo not shown) [Example 7-17]	–	0.01 to 0.1 µg/mL	–
C=CCOC(=O)N1c2cc(Cl)ccc2NC(=S)C1CCC (stereo not shown) [Example 7-18]	–	0.01 to 0.1 µg/mL	–
CC1C(=S)Nc2ccc(Cl)cc2N1Cc1ccccn1 (stereo not shown) [Example 7-19]	–	0.01 to 0.1 µg/mL	–
CC1C(=S)Nc2ccc(Cl)cc2N1Cc1cccnc1 (stereo not shown) [Example 7-20]	–	0.1 to 1 µg/mL	–
CCOC(=O)N1c2cc(Cl)ccc2NC(=S)C1(C)C [Example 7-24]	–	<0.01 µg/mL	–
CCCOC(=O)N1c2cc(Cl)ccc2NC(=S)C1(C)C [Example 7-25]	–	<0.01 µg/mL	–
CCC1C(=S)Nc2ccc(Cl)cc2N1Cc1ccccn1 (stereo not shown) [Example 7-26]	–	0.01 to 0.1 µg/mL	–
CSCC1C(=S)Nc2ccc(Cl)cc2N1C(=O)OC(C)C (stereo not shown) [Example 7-28]	–	<0.01 µg/mL	–
CSCC1C(=S)Nc2ccc(Cl)cc2N1Cc1ccccn1 (stereo not shown) [Example 7-29]	–	0.01 to 0.1 µg/mL	–
C=C(C)OC(=O)N1c2cc(OC)ccc2NC(=S)C1CSC (stereo not shown) [Example 7-30]	–	<0.01 µg/mL	–
COc1ccc2c(c1)N(C(=O)OC(C)C)C(CSC)C(=S)N2 (stereo not shown) [Example 7-31]	–	<0.01 µg/mL	–
CC1C(=O)Nc2ccc(Cl)cc2N1Cc1ccsc1 (stereo not shown) [Example 10-34]	–	0.1 to 1 µg/mL	–
CC1C(=O)Nc2ccc(Cl)cc2N1C(=O)SCc1ccccc1 (stereo not shown) [Example 11-5]	–	0.1 to 1 µg/mL	–
C=CCSC(=O)N1c2cc(Cl)ccc2NC(=O)C1C (stereo not shown) [Example 11-6]	–	0.1 to 1 µg/mL	–
C=C(C)COC(=O)N1c2cc(Cl)ccc2NC(=O)C1C (stereo not shown) [Example 11-7]	–	approx. 1 μg/ml	–
CSCCOC(=O)N1c2cc(Cl)ccc2NC(=O)C1C (stereo not shown) [Example 11-13]	–	approx. 1 μg/ml	–
C[C@H]1C(=O)Nc2ccc(Cl)cc2N1C(=O)OCc1ccccc1 [Example III, (3S)-4-N-(Benzyloxycarbonyl)-6-chloro-3-methyl-3,4-di-hydroquinoxalin-2(1H)-one]	–	–	MIC (HIV): 0.8 µg/mL (≈ 2.42 µM)
CC(C)=CCN1c2ccccc2NC(=O)C1(C)C [Example XX, 3,3-Dimethyl-4-N-(3-methyl-2-buten-1-yl)-3,4-dihydroquinoxalin-2(1H)-one]	–	–	MIC (HIV): < 4 µg/mL
CC(C)=CCN1c2cc(Cl)ccc2NC(=O)[C@H]1C [VI-B, (3R)-6-Chloro-3-methyl-4-N-(3-methyl-2-buten-1-yl)-3,4-dihydroquinoxalin-2(1H)-one]	–	–	MIC (HIV): 20 µg/mL (≈ 75.5 µM)

The next lines start with results.

T-cell culture assay MIC (HIV) [µg/mL]	Compound	Reverse Transcriptase Assay IC50 [1]	other results
<0.8	CCC1(CC)C(=O)Nc2cc(C)ccc2N1CC=C(C)C [Example 6-20]	–	–
>0.8	CC(C)=CCN1c2ccc(F)cc2NC(=O)C1(C)C [Example 6-22]	–	–
<0.08	C=C(C)OC(=O)N1c2ccc(F)cc2NC(=O)C1(C)C [Example 6-32]	–	–
>0.8	C=C(C)OC(=O)N1c2ccc(OCC)cc2NC(=O)C1(C)C [Example 6-33]	–	–
<0.8	C=C(C)OC(=O)N1c2cc(C)c(C)cc2NC(=O)C1(C)C [Example 6-36]	–	–
0.4	C=C(C)OC(=O)N1c2ccc(Oc3ccccc3)cc2NC(=O)C1(C)C [Example 6-39]	–	–
0.4	CC1C(=O)Nc2ccc(Cl)cc2N1C1CCC1 (stereo not shown) [Example 10-4]	–	–
<0.8	CC(C)CCN1c2cc(Cl)ccc2NC(=O)C1C (stereo not shown) [Example 10-5]	–	–
<0.8	CC1C(=O)Nc2ccc(Cl)cc2N1Cc1ccc(Br)cc1 (stereo not shown) [Example 10-14]	–	–
<0.8	CC=CCOC(=O)N1c2cc(Cl)ccc2NC(=O)C1C (stereo not shown) [Example 11-1]	–	–
<0.8	C#CCOC(=O)N1c2cc(Cl)ccc2NC(=O)C1C (stereo not shown) [Example 11-3]	–	–
0.8	CC#CCOC(=O)N1c2cc(Cl)ccc2NC(=O)C1C (stereo not shown) [Example 11-4]	–	–
